Laboratory results as given in patent US20160361311A1, “LIGANDS THAT TARGET HEPATITIS C VIRUS E2 PROTEIN” (AMERICAN UNIVERSITY OF CAIRO, priority 2014, published 2016).

Tests used:
HCVcc = HCVcc infection of Huh-7 cells (Gaussia luciferase); assay type: cell-based, HCV; settings: Hepatitis C virus, Huh-7, 30 h, read-out: IC50 HCVcc
Description: The cell culture-produced HCV particles (HCVcc) used in this study were based on the JFH1 strain [36] and were prepared as described previously. They were engineered to express the A4 epitope, titer-enhancing mutations and Gaussia luciferase.
(§1) To identify ligands that inhibit HCV infection, Huh-7 cells were seeded in 96-well plates and treated the day after with six different concentrations of each ligand diluted in DMSO in duplicate using a Zephyr automated liquid handling workstation (Caliper BioSciences, Hopkinton, Mass.). The final concentration of DMSO (1%) was adjusted to be the same for all ligand concentrations. Cells treated with DMSO were used as negative controls. Cells treated with different concentrations of anti-CD81 (JS-81 from BD Pharmingen, San Jose, Calif.) 1 hour before infection, were also used as positive controls. The third day, RD114pp, HCVpp or HCVcc were inoculated and incubated for 30 hours at 37° C. Firefly and Gaussia luciferase assays were performed as indicated by the manufacturer (Promega, San Luis Obispo, Calif.).
(§2) The remaining ligands were next tested against pseudotyped retroviral particles harboring genotype-2a HCV envelope proteins (HCVpp 2a), cell culture produced HCV particles (HCVcc) or RD114pp. As a positive control, an anti-CD81 antibody was used in parallel.

HCVpp 2a [1] = test: HCVpp 2a infection of Huh-7 cells, 96-well (luciferase); assay type: cell-based, HCV; settings: Hepatitis C virus, Huh-7, 30 h, read-out: IC50 HCVpp
Description: (§3) Pseudotyped retroviral particles harboring HCV envelope proteins (HCVpp) from different genotypes were produced as described previously. A plasmid encoding the feline endogenous virus RD114 glycoprotein [35] was used for the production of RD114pp. Both HCVpp and RD114pp expressed Firefly luciferase.
as §1, §2

[2] = test system: HCV genotypes 1a, 1b, 2a, 2b, 4a and 6a; test: HCVpp infection assays over all genotypes tested (summary statements); assay type: cell-based
Description: as §3, §1
The analysis of the effect of 281816 ligand on Huh-7 infection by HCVpp bearing envelope proteins from different genotypes was performed in 24-well plates using the method described above. […]

HCVpp 2a [3] = test: HCVpp genotype infection of Huh-7 cells, 24-well; assay type: cell-based, HCV; settings: Hepatitis C virus
Description: as §3, §1
(§4) The analysis of the effect of 281816 ligand on Huh-7 infection by HCVpp bearing envelope proteins from different genotypes was performed in 24-well plates using the method described above. This ligand was also screened for toxicity to the hepatocytes using the MTS (3-(4,5-dimethylthiazol-2-yl)-5-(3-carboxymethoxyphenyl)-2-(4-sulfophenyl)-2Htetrazolium) assay.
(§5) To determine if 281816 would inhibit HCV genotypes other than 2a, a series of infection assays were performed with HCVpp bearing envelope proteins from a number of different HCV genotypes.

HCVpp 4a = test: HCVpp genotype infection of Huh-7 cells, 24-well; assay type: cell-based, HCV; settings: Hepatitis C virus
Description: as §3, §1, §4, §5

HCVpp 2b = test: HCVpp genotype infection of Huh-7 cells, 24-well; assay type: cell-based, HCV; settings: Hepatitis C virus
Description: as §3, §1, §4, §5

[4] = MTS viability / hepatocyte toxicity assay; assay type: cell-based; settings: human
Description: as §4, §2

hepatocytes = test: MTS viability / hepatocyte toxicity assay; assay type: cell-based; settings: over the concentrations tested in the infection assays, highest 10 μM
Description: as §4, §2

## CSc1ccc2c(c1)C(N1CCN(C)CC1)Cc1ccccc1S2 (stereo not drawn) [Ligand 281816]
HCVcc
  IC50: 3.95 µM
HCVpp 2a [1]
  IC50: 1.02 µM
[2]; Hepatitis C virus, read-out: IC50 range over HCV genotypes
  IC50: 2.2 to 4.6 µM
[2]; genotypes 1a, 1b, 2a, 2b, 4a and 6a
  block of hepatocyte infection (in words): block infection of hepatocytes by each of the HCV genotypes and subtypes tested
HCVpp 2a [3]
  IC50: 2.22 µM
HCVpp 4a
  IC50: 3.44 µM
HCVpp 2b
  IC50: 2.93 µM
[4]
  CC50: 14 µM
hepatocytes
  hepatocyte toxicity: not observed
